Key:
rats = assay: Visceral Hyperalgesia Testing (colorectal balloon distention following zymosan); assay type: in vivo, rat; conditions: 30 mg/kg i.p., 5 rats, repeated distentions of 40 mmHg
Experimental: Method: Rats were chronically instrumented with EMG electrodes in the muscles of the anterior abdominal wall. Distention of an intracolonic balloon, using a barostat apparatus, evoked increases in the EMG recordings that are related to the pressure. Control responses are compared with repeat stimulation 4 hours after zymosan is administered to the colon (FIG. 1).

delta opioid receptor = molecular target: T1, delta opioid receptor (Rattus norvegicus, UniProt P33533); assay: Rat Brain Delta Opioid Receptor Binding Assay-Version 1a ([3H]naltrindole); conditions: rat forebrain membranes, 0.1 nM [3H]naltrindole; margin of error 10-20%; read-out: r Ki δ Ver. 1a
T1 construct: from tissue; host or cells: forebrain of male Wistar rats
Experimental: Male, Wistar rats (150-250 g, VAF, Charles River, Kingston, N.Y.) were killed by cervical dislocation, and their brains removed and placed immediately in ice-cold Tris HCl buffer (50 mM, pH 7.4). The forebrains were separated from the remainder of the brain by a coronal transection, beginning dorsally at the colliculi and passing ventrally through the midbrain-pontine junction. After dissection, the forebrains were homogenized in Tris buffer in a Teflon®-glass homogenizer. The homogenate was diluted to a concentration of 1 g of forebrain tissue per 80 mL Tris and centrifuged at 39,000×g for 10 min. The pellet was resuspended in the same volume of Tris buffer containing 5 mM MgCl2 with several brief pulses from a Polytron homogenizer. This particulate preparation was used for the delta opioid binding assay. Following incubation with 0.1 nM of the delta selective ligand [^3H]naltrindole at 25° C. for 2.5 h in a 96-well plate with total 1 mL, the plate contents were filtered through Wallac filtermat B sheets on a Tomtec 96-well harvester. The filters were rinsed three times with 2 mL of 10 mM HEPES (pH 7.4), and dried in a microwave oven. To each sample area, Betaplate Scint scintillation fluid (LKB) was added and the resulting radioactivity quantified on a LKB (Wallac) 1205 BetaPlate liquid scintillation counter. Kd and Ki values were calculated using the GraphPad PRISM data analysis program.

T1 sequence (P33533 whole entry): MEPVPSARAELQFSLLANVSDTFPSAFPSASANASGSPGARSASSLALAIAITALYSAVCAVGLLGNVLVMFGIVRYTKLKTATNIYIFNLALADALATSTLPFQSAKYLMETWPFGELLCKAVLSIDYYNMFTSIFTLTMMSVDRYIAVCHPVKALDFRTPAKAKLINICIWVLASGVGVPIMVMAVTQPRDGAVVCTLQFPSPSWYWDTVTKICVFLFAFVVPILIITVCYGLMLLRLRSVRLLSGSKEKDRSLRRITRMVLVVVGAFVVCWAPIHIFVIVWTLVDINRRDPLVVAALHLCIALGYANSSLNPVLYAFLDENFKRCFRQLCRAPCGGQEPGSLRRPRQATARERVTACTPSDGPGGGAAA

SMILES | hyperalgesic response to colorectal balloon distention following zymosan (rats) | Ki (delta opioid receptor) [nM]
COc1ccc(CN(C(=O)[C@@H](N)Cc2c(C)cc(C(N)=O)cc2C)[C@@H](C)c2nc(-c3ccccc3)c[nH]2)cc1C(=O)O [Cpd 18] | blocked the hyperalgesic response | –
Cc1cc(O)cc(C)c1C[C@H](N)C(=O)N(Cc1cccc(C(=O)O)c1)[C@@H](C)c1nc(-c2ccccc2)c[nH]1 [Cpd 48] | – | 0.24
COC(=O)c1ccc(CN(C(=O)[C@@H](N)Cc2ccc(C(N)=O)cc2)[C@@H](C)c2nc(-c3ccccc3)c[nH]2)o1 [Cpd 303] | – | 24.5
COC(=O)c1ccc(CN(C(=O)[C@@H](N)Cc2c(C)cc(C(N)=O)cc2C)[C@@H](C)c2nc(-c3ccccc3)c[nH]2)o1 [Cpd 257] | – | 14
